Reference: patent US12594293B2, “Use of 6-thio-dG to treat therapy-resistant telomerasepositive pediatric brain tumors” (The Board of Regents of The University of Texas System, priority 2018, dated 2026)
“Also recorded” adds a separate entry of the source.

Experiments:
[1] = tested on: D-425; experiment: Cell growth assay (viable cell count, trypan blue exclusion); format: cell-based, human
Method: (§1) Cell growth and sphere formation assay. After dissociating primary neurospheres by TrypLE express (Gibco), single cells were seeded in respective growth media in 6-well plates and were incubated for one week at varying concentrations (0.5 to 10 μM) of 6-thio-dG or DMSO. Fresh culture media were added every three days. Viable cell numbers were determined by trypan blue exclusion method. For sphere formation assay, MB004 single cells were seeded in limited dilution (10 cells/well in 96-well plate) and treated with DMSO or 6-thio-dG. Sphere formation was monitored by microscopy.

[2] = tested on: D-458; experiment: as above; format: cell-based, human
Method: as §1

[3] = tested on: HFF; experiment: as above; format: cell-based, human
Method: as §1

[4] = tested on: MB004; experiment: as above; format: cell-based, human
Method: as §1

[5] = tested on: SaOS2; experiment: as above; format: cell-based, human
Method: as §1

[6] = tested on: HFF + hTERT; experiment: as above; format: cell-based, human; details: Homo sapiens, 168 h; 6-thio-dG treatment for 7 days; HFF + hTERT
[7] = tested on: telomerase-positive cells including brain tumor cells; experiment: Cell growth assay, panel of telomerase-positive cells; format: cell-based, human
Method: as §1

[8] = tested on: HFF+hTERT cells; experiment: Senescence-associated β-galactosidase assay; format: cell-based, human; details: 3 μM for 23 days
Text: Senescence assay. Senescence-associated β-galactosidase was detected as previously described (2). Cells were observed under the microscope until the development of the blue color and the reaction was terminated. Images were captured; stained and unstained cells were counted from multiple fields to quantitate the percent senescent cells.

[9] = tested on: HFF cells; experiment: Cell cycle analysis (PI flow cytometry); format: cell-based, human; details: 3 μM, three days
Method: (§2) Cell cycle analysis. Following treatment with 6-thio-dG or DMSO, cells were collected in PBS, fixed with ice-cold 70% ethanol and were kept in −20° C. for at least an hour. Cells were then washed and stained with propidium iodide (PI) solution containing 25 μg/mL PI (Sigma), and 100 μg/mL Ribonuclease-A (Sigma) for 30 minutes in the dark. Flow cytometry was performed on BD FACS Canto II and cells were analyzed using FlowJo v.10 (FlowJo, USA) software.

[10] = tested on: HFF+hTERT cells; experiment: Cell cycle analysis (PI flow cytometry); format: cell-based, human
Method: as §2

[11] = tested on: U2OS cells; experiment: Cell growth and viability after drug removal; format: cell-based, human; details: 3 mM 6-thio-dG for 3 days followed by 10-days post-drug removal (FIG. 10C)
[12] = tested on: MB004 tumors
Method: (§3) Mouse subcutaneous and orthotopic xenograft. Athymic Ncr-nu/nu female mice (6-7 weeks old) were subcutaneously injected with 10,000 MB004 cells. Mice were weighed and distributed in two groups (control and 6-thio-dG). After tumor-establishment (day 23-24 post-implantation) with an average volume of 100-200 mm3, mice were injected intraperitoneally (i.p) every 2 days with 6-thio-dG (2.5 mg/kg) or DMSO-PBS (vehicle) for 3-4 weeks until euthanization. Tumors were measured by slide calipers taking two longest tumor-diameters (length and width) perpendicular to each other and volumes were calculated by using the formula: (π/6)×d3, where d=mean diameter. For orthotopic xenograft, CCHMC-DIPG-1 luciferase-positive cells (10,000) were injected in the brain of NRG (NOD.Cg-Rag1tm1Mom Il2rgtm1Wjl/SzJ) mice. Briefly, mice were injected stereotactically with 2 μl medium containing 10,000 luciferase-positive cells. The coordinates for injection were 0.8-1 mm posterior to lambda suture and 3.5 mm deep, corresponding to the pons location in the brain. Tumors were visualized by luminescence using IVIS Spectrum CT in vivo imaging system (PerkinElmer). All animal procedures were approved by the Institutional Animal Care and Use Committee (IACUC) (protocol #IACUC2015-0066, CCHMC).
(§4) Immunohistochemistry. Formalin-fixed paraffin-embedded (FFPE) sections were deparaffinized in xylene followed by rehydration through a graded ethanol concentration series. Heat-induced antigen retrieval was performed by steaming slides for 20 minutes in 10 mM Citrate buffer (pH 6.0). […] Slides were washed with TBST (×3) and were treated with biotinylated anti-rabbit secondary antibody (1:500) and signal-amplified using ABC Kit (Vector Laboratories). Signal was visualized with DAB (Vector Laboratories) and counterstained with Harris Hematoxylin (Sigma). H & E staining was performed using hematoxylin-1 and eosin-Y (Thermo Scientific). Tissues were mounted with Permount (Fisher Scientific) and imaged by Nikon eclipse 80i microscope.
Tissue TIF assay. Tissue samples were pre-fixed with 4% PFA and were cryo-protected in 25% sucrose/PBS solution, then embedded in OCT freezing molds with Neg-50 (VWR) in acetone and dry ice followed by cryo-sectioning. Heat-induced antigen retrieval and Telomere-FISH was performed as described above. The samples were incubated in blocking solution (5% donkey serum, 0.3% Triton X-100 in TBS) for 30 minutes and treated with anti-53BP1 (rabbit 1:500; Novus Biologicals) for 1 hour at room temperature. After washing in TBST (×3), the samples were incubated with secondary antibody Alexa-Fluor 488-conjugated donkey anti-rabbit (1:400; Jackson ImmunoResearch), and washed in TBS (×3). The samples were embedded in mounting media with DAPI (Vector Laboratories H1200). Images were captured with 60× oil objective on Nikon Eclipse Ti confocal microscope.

[13] = tested on: CCHMC-DIPG-1 orthotopic tumors; experiment: Orthotopic patient-derived DIPG xenograft (CCHMC-DIPG-1 in pons); format: in vivo, mouse
Method: as §3, §4
Tissue TIF assay. […]

[14] = cited from earlier work
[15] = 2.5 mg/kg i.p. every 2 days for 3-4 weeks
[16] = 2.5 mg/kg i.p. every 2 days, vs untreated group

Nc1nc2c(ncn2[C@H]2C[C@H](O)[C@@H](CO)O2)c(=S)[nH]1 [6-thio-dG, 6-thio-2′-deoxyguanosine]
cell growth ([1]; 0.5-10 μM for one week, cells at diagnosis): effectively inhibited cell growth | IC50 ([1]; Homo sapiens, 168 h, 6-thio-dG treatment for 7 days, D-425 (primary)): 1380 nM | cell growth ([2]; 0.5-10 μM for one week, cells at recurrence): effectively inhibited cell growth | IC50 ([2]; Homo sapiens, 168 h, 6-thio-dG treatment for 7 days, D-458 (recurrence)): 1450 nM | IC50 ([3]; Homo sapiens, 168 h, 6-thio-dG treatment for 7 days, HFF (telomerase-negative)): 7900 nM | cell growth ([3]; up to 3 μM, one week): minor to no effect | relative growth ([4]; 3 μM 2 days, then 3 days continuous or discontinuous treatment): robust growth inhibition | IC50 ([4]; Homo sapiens, 168 h, 6-thio-dG treatment for 7 days, MB004): 436 nM | IC50 ([5]; Homo sapiens, SAOS-2, 168 h, 6-thio-dG treatment for 7 days, SaOS2 (telomerase-negative, ALT-positive)): 7580 nM | cell growth ([5]; up to 3 μM, one week): minor to no effect | IC50 [6]: 179 nM | cell growth ([7]; 0.5 to 10 μM every three days for one week): inhibited cell growth in a dose-dependent manner | IC50 ([7]; Homo sapiens, all telomerase-positive cells including brain tumor cells (Table S2)): 140 to 1450 nM | cells with senescence phenotype (SA-β-gal-positive) [8]: 30% | G2/M arrest effect [9]: negligible | cell cycle profile after drug removal ([10]; 3 μM 3 days, then drug removed): partially reverted to that of the vehicle control | cell cycle progression ([10]; 3 μM, three days): caused G2/M arrest | cell death / viability [11]: predominantly did not die | in-tumor cells with at least 1-3 TIFs ([12]; 2.5 mg/kg i.p. every 2 days): More than 21% | population of cells with 4-6 TIFs per cell ([12]; 2.5 mg/kg i.p. every 2 days): detected only in treated tumors | treated mice with fast tumor growth [12, 15]: Two out of six | treated mice with reduced or delayed tumor growth [12, 15]: Four out of six | in-tumor apoptosis (cleaved caspase-3 IHC) ([12]; 2.5 mg/kg i.p. every 2 days, vs control group): significant increase in apoptosis | apoptotic bodies (H & E) [12, 16]: increase in apoptotic bodies | number of mitotic figures (H & E) [12, 16]: significant decrease | probability of animal survival ([12]; upon reaching tumor volume of 1500 mm^3, vs vehicle group): significantly higher | intratumoral TIFs and genomic DNA damage ([13]; i.p., 7-8 days (4-5 doses in total), vs untreated tumors): increase in the number of cells with genomic DNA damage and TIFs | effect on normal mouse brain ([13]; intraperitoneal injection): no obvious effect on normal brain tissue; also recorded: did not observe any adverse effects | penetration to brain tumor site ([13]; intraperitoneal injection): reached the tumor in the pons; also recorded: crossed the blood-brain-barrier | animal deaths or weight loss ([14]; mice treated with 6-thio-dG, Mender et al.): no animal deaths or weight loss | toxic effects on hematologic counts, liver and kidney functions ([14]; mouse, in vivo): did not cause any toxic effects
